Test results from patent EP4755886A1 (Chengdu Chipscreen Pharmaceutical Ltd., priority 2023, dated 2025).
Where two headings read alike, the source gives them in different places.

Key:
CYP450 enzyme 3A4 = biological target: T1, CYP450 enzyme 3A4 (Homo sapiens, UniProt P08684); assay: CYP inhibition test in human liver microsomes; type: in vitro ADME; conditions: human liver microsomes 0.1 mg/mL
T1 construct: Liver microsomes (purchased from BIOIVT, Cat. No.: X008070); tissue BIOIVT X008070; host or cells: human liver microsomes
Procedure: Experimental materials: human liver microsomes (purchased from BIOIVT);
PBS: 0.1 M KH2PO4 and K2HPO4 buffers, pH 7.4.
MgCl2: a certain amount of MgCl2 was weighed out and prepared into a 20 mM MgCl2 solution with PBS.
NADPH (Chinese name: reduced nicotinamide adenine dinucleotide phosphate, purchased from Sigma, Cat. No.: 481973-500 mg): a certain amount of NADPH was weighed out and a 5 mM solution of NADPH was prepared with a 20 mM MgCl2 solution, and the final incubation concentration was 1 mM.
Compounds: 3 mM, 1 mM, 0.3 mM, 0.1 mM, 0.03 mM, 0.01 mM, and 0 mM solutions of the test compounds were prepared with a DMSO-methanol (v:v = 1:9) solution, and the final incubation concentrations were 30 µM, 10 µM, 3 µM, 1 µM, 0.3 µM, 0.1 µM, and 0 µM. 30 µM, 10 µM, 3 µM, 1 µM, 0.3 µM, and 0 µM solutions of the positive compound (ketoconazole) were prepared with a DMSO-methanol (v:v = 1:9) solution, and the final incubation concentrations were 0.3 µM, 0.1 µM, 0.03 µM, 0.01 µM, 0.003 µM, and 0 µM.
Substrate working solutions: 200 µM and 15 µM solutions of substrate working solutions (testosterone and midazolam) were prepared with PBS, separately, and the final incubation concentrations were 40 µM and 3 µM.
Liver microsomes (purchased from BIOIVT, Cat. No.: X008070): the liver microsomes were diluted to […] with PBS, and the final incubation concentration was 0.1 mg/mL.
The prepared test compounds or positive compounds were added to a 96-well plate, and then the prepared human liver microsome working solution and substrate working solution were added. The mixture was mixed well. The mixture was pre-incubated in a thermostat incubator at 37 °C for 5 min, and then the prepared NADPH was added to start the reaction. The mixture was incubated for 5 min or 10 min. After the incubation was completed, a pre-cooled acetonitrile solution containing an internal standard was added to terminate the reaction. After protein precipitation, the mixture was vortexed for 5 min with shaking and then centrifuged at 4000 rpm for 10 min. The supernatant was collected and added to the 96-well plate. The content (peak concentration ratio) of the metabolites of the substrate was determined by an LC-MS/MS method. The residual activity and the half maximal inhibitory concentration (IC50) of the enzyme were calculated based on the detected content.
Percentage of remaining enzyme activity: The activity of each subtype of CYP450 enzyme was expressed as the amount of metabolite produced, and the percentage of remaining enzyme activity was calculated as follows: [formula]
The concentrations of the test substances and the corresponding residual activity percentages were fitted using a nonlinear model of Excel software, and the concentration of the test substances at which 50% inhibition of metabolite production was achieved was the IC50 value.

wild-type HCT-116 cells = assay: Cell proliferation (MTS), wild-type HCT-116; type: cell-based; conditions: Homo sapiens, 240 h; wild-type HCT-116, 10 days with compound, MTS reading; read-out: IC50 HCT116 WT
How it was run: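 Wild-type HCT-116 cells were seeded at 100 cells/well in McCoy's 5A/10% FBS. From day 1 they were treated with compound in 3-fold dilutions (initial 20 µM, 8 points) for 10 days at 37° C. Proliferation was read by MTS on day 11, and IC50 was obtained from a four-parameter logistic fit.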

MTAP^-/- HCT-116 cells = assay: Cell proliferation (MTS), MTAP-/- HCT-116; type: cell-based, human; conditions: for Selectivity: HCT116 WT IC50 relative to HCT116 MTAP-/- IC50; for IC50: Homo sapiens, 240 h, MTAP-/- HCT-116, 10 days with compound, MTS reading, read-out: IC50 HCT116 MTAP-/-
How it was run: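 MTAP-/- (CRISPR/Cas9 biallelic knockout) or wild-type HCT-116 cells seeded at 100 cells/well, treated next day with 8-point 3-fold dilutions (top 20 µM) for 10 days at 37 °C, 5% CO2. Viability read by MTS; IC50 from four-parameter logistic fit of inhibition rate vs log concentration.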

[1] = substrate midazolam 3 µM, read-out: IC50 3A4-Midazolam
[2] = substrate testosterone 40 µM, read-out: IC50 3A4-Testosterone

T1 sequence (P08684 whole entry): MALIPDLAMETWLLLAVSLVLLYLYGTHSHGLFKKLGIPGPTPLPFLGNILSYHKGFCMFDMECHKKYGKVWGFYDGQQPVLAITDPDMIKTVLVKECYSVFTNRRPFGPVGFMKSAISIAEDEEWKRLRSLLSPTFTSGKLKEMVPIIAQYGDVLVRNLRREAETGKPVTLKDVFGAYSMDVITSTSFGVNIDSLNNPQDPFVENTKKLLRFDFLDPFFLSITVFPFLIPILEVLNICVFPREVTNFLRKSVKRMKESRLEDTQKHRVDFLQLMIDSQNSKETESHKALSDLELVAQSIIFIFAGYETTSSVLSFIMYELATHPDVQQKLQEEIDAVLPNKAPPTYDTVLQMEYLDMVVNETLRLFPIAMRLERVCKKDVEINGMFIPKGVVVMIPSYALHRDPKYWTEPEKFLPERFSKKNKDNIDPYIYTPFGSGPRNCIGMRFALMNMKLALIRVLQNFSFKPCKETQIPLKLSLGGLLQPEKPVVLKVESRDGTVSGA

Compound | IC50 (CYP450 enzyme 3A4; [1]) [nM] | IC50 (CYP450 enzyme 3A4; [2]) [nM] | IC50 (wild-type HCT-116 cells) [nM] | Selectivity (MTAP^-/- HCT-116 cells) | IC50 (MTAP^-/- HCT-116 cells) [nM]
CN(C(=O)c1cc2c3c(c(N)nc2cc1Cl)COC3)[C@@H]1COc2cc(C#Cc3cnn(C4CC4)c3)ccc21 [Compound 43A, (S)-4-amino-7-chloro-N-(6-((1-cyclopropyl-1H-pyrazol-4-yl)ethynyl)-2,3-dihydrobenzofuran-3-yl)-N-methyl-1,3-dihydrofuro[3,4-c]quinoline-8-carboxamide] | > 30000 | > 30000 | 646 | 170 | 3.8
CN(C(=O)c1cc2c(cc1F)nc(N)c1cnn(C)c12)[C@@H]1COc2cc(C#Cc3cnn(C)c3)ccc21 [Compound 5A, (S)-4-amino-7-fluoro-N,1-dimethyl-N-(6-((1-methyl-1H-pyrazol-4-yl)ethynyl)-2,3-dihydrobenzofuran-3-yl)-1H-pyrazolo[4,3-c]quinoline-8-carboxamide] | > 30000 | > 30000 | 170 | – | 1.7
Cc1nn(C)cc1C#Cc1ccc2c(c1)OC[C@H]2N(C)C(=O)c1cc2c3c(c(N)nc2cc1Cl)COC3 [Compound 50A, (S)-4-amino-7-chloro-N-(6-((1,3-dimethyl-1H-pyrazol-4-yl)ethynyl)-2,3-dihydrobenzofuran-3-yl)-N-methyl-1,3-dihydrofuro[3,4-c]quinoline-8-carboxamide] | > 30000 | > 30000 | 431 | 180 | 2.4
